# From patent US9745314B2, “MDM2 inhibitors and therapeutic methods using the same” (THE REGENTS OF THE UNIVERSITY OF MICHIGAN, priority 2014, dated 2017)
# Read-outs that look alike come from different tables or passages of the source.
# Assays:
# [1] = molecular target: T1, recombinant human His-tagged MDM2 protein (residues 1-118) (Homo sapiens, UniProt Q00987); assay: biochemical
# [2] = molecular target: T1, recombinant human His-tagged MDM2 protein (residues 1-118); assay: Fluorescence-polarization MDM2 competitive binding assay; conditions: for Ki: MDM2 (FP binding assay) Ki(nM), competitive FP
# [3] = test system: SJSA-1 cells; assay: Cell growth assay (WST-8), SJSA-1; type: cell-based, human; conditions: for IC50: Homo sapiens, SJSA-1, 96 h, 4 days
# [4] = test system: HCT116 p53 WT; assay: Cell growth assay (WST-8), HCT116 p53 WT; type: cell-based; conditions: Homo sapiens, HCT-116, 96 h, 4 days
# [5] = test system: HCT116 p53 deleted (HCT116 p53−/−); assay: Cell growth assay (WST-8), HCT116 p53 deleted; type: cell-based; conditions: Homo sapiens, HCT-116, 96 h, 4 days
# [6] = test system: Saos2; assay: Cell growth assay (WST), Saos2; type: cell-based; conditions: Homo sapiens, SAOS-2, 96 h, Osteosarcoma, p53 null, 4 days, read-out: Cell Growth Inhibition (IC50) Saos2
# [7] = test system: LNCaP; assay: Cell growth assay (WST), LNCaP; type: cell-based; conditions: Homo sapiens, 96 h, Prostate cancer, p53 wild-type, 4 days, read-out: Cell Growth Inhibition (IC50) LNCaP
# [8] = test system: PC3; assay: Cell growth assay (WST), PC3; type: cell-based; conditions: Homo sapiens, PC-3, 96 h, Prostate cancer, p53 null, 4 days, read-out: Cell Growth Inhibition (IC50) PC3
# [9] = test system: ZR-75-1; assay: Cell growth assay (WST), ZR-75-1; type: cell-based; conditions: Homo sapiens, ZR-75-1, 96 h, Breast cancer, p53 wild-type, 4 days, read-out: Cell Growth Inhibition (IC50) ZR-75-1
# Experimental: Cells were seeded in 96-well flat bottom cell culture plates at a density of 2-3×10^3 cells/well with compounds and incubated for 4 days. […] 92037, USA).
# [10] = test system: SJSA-1 xenograft tumors; assay: In vivo efficacy in SJSA-1 xenograft model; design: species or system C.B-17 SCID mice; conditions: for anti-tumor activity in mice bearing SJSA-1 xenograft tumors (in words): FIG. 2B
# Experimental: In Vivo Efficacy Studies Using SJSA-Xenograft Models
# SJSA-1 (osteosarcoma) tumor cells were harvested with Trypsin (0.05%)-EDTA (0.53 mM) (GIBCO™, Invitrogen Corp.), growth medium was added, and the cells were placed on ice. A cell sample was mixed 1:1 with Trypan Blue (GIBCO™, Invitrogen Corp.) and counted on a hemocytometer to determine the number of live/dead cells. Cells were washed once with 1×PBS (GIBCO™, Invitrogen Corp.) and resuspended in PBS. For Matrigel injections, after washing in PBS, cells are resuspended in an ice cold mixture of 1:1 PBS and Matrigel (BD Biosciences, Invitrogen Corp.) for a final Matrigel protein concentration of 5 mg/ml. SJSA-1 tumors were inoculated into C.B-17 SCID mice at 5×10^6 cells in 0.1 ml with Matrigel. Cells were injected s.c. into the flank region of each mouse using a 27 gauge needle.
# The size of tumors growing in the mice was measured in two dimensions using calipers. Tumor volume (mm^3)=(A×B^2)/2 where A and B are the tumor length and width (in mm), respectively. During treatment, tumor volume and body weight was measured three times a week. After the treatment was stopped, tumor volume and body weight was measured at least once a week. Mice were kept for an additional 60 days for further observation of tumor growth and toxicity. The anti-tumor activity of compound No. 8 (administered via oral gavage) at different doses and according to different dosing schedules, including weekly for 3 weeks (qw*3 wks), every other day for 3 weeks, daily for 3 days out of a week for 3 weeks (qd1-3/w*3 wks), and daily for 2 weeks (qd*14 d), is shown in FIG. 3.
# [11] = Microsomal stability, mouse; type: in vitro ADME; conditions: mouse microsomes; read-out: Microsomal stability T1/2 (min) Mouse
# [12] = Microsomal stability, rat; type: in vitro ADME; conditions: rat microsomes; read-out: Microsomal stability T1/2 (min) Rat
# [13] = Microsomal stability, dog; type: in vitro ADME; conditions: dog microsomes; read-out: Microsomal stability T1/2 (min) Dog
# [14] = Microsomal stability, human; type: in vitro ADME; conditions: human microsomes; read-out: Microsomal stability T1/2 (min) Human
# [15] = Oral pharmacokinetics in Sprague-Dawley rats; conditions: rat, in vivo, 25 mg/kg oral
# [16] = Stability of compounds in solution (UPLC); type: physicochemical; conditions: FIG. 1; 1:1 CH3CN/H2O, 1:1 MeOH/H2O, cell culture media
# Experimental: Stability of Compounds in Solution
# The stability of the compounds were determined in 1:1 MeOH:H2O, 1:1 CH3CN:H2O, and cell culture medium using ultra performance liquid chromatography.
# [17] = test system: RS4; 11; assay: Cell growth assay (WST), RS4;11; type: cell-based; conditions: Homo sapiens, RS4-11, 96 h, Leukemia, p53 wild-type, 4 days, read-out: Cell Growth Inhibition (IC50) RS4
# [18] = WST-8, read-out: Cell Growth Inhibition IC50 (μM) SJSA-1
# [19] = Osteosarcoma, p53 wild-type, WST assay, read-out: Cell Growth Inhibition (IC50) SJSA-1
# [20] = WST-8, read-out: Cell Growth Inhibition IC50 (μM) HCT116 p53 WT
# [21] = Colon cancer, p53 wild-type, WST assay, read-out: Cell Growth Inhibition (IC50) HCT116
# [22] = WST-8, read-out: Cell Growth Inhibition IC50 (μM) HCT116 p53 deleted
# [23] = Colon cancer, p53 knock-out, WST assay, read-out: Cell Growth Inhibition (IC50) HCT116 p53−/−
IC50 [1] [µM],Ki [2] [nM],"IC50 [3, 18] [µM]","IC50 [4, 20] [µM]","IC50 [5, 22] [µM]",half-life [11] [min],half-life [12] [min],half-life [13] [min],half-life [14] [min],AUC(0-inf) [15] [ng·h/mL],AUC(0-t) [15] [ng·h/mL],Tmax [15] [h],half-life [15] [h],binding affinity to MDM2 (in words) [2],Structure (SMILES),IC50 [9] [µM],anti-tumor activity in mice bearing SJSA-1 xenograft tumors (in words) [10],cell growth inhibition in SJSA-1 cells (in words) [3],further results
0.0073,< 1,–,–,–,–,–,–,–,–,–,–,–,–,CC1(O)CCC2(CC1)N[C@@H](C(=O)NC13CCC(C(=O)O)(CC1)CC3)[C@H](c1cccc(Cl)c1F)[C@]21C(=O)Nc2cc(Cl)ccc21 (some centres unmarked) [Cpd No. 6],–,–,–,–
–,–,0.06 ± 0.022,0.104 ± 0.036,8 ± 1,> 60,> 60,> 60,> 60,39500 ± 8520,39100 ± 8470,4,4.61 ± 1.35,high binding affinity,CCN1[C@@H](C(=O)NC23CCC(C(=O)O)(CC2)CC3)[C@H](c2cccc(Cl)c2F)[C@]2(C(=O)Nc3cc(Cl)ccc32)C12CCCCC2 [Cpd No. 8],0.462 ± 0.036,complete and persistent tumor regression,–,"IC50 [3, 19]: 0.06 ± 0.022 µM; IC50 [4, 21]: 0.104 ± 0.036 µM; IC50 [5, 23]: 8 ± 1 µM; IC50 [6]: 22.7 ± 4.7 µM; IC50 [7]: 0.018 ± 0.013 µM; IC50 [8]: 22 ± 7.2 µM; stability in solutions (in words) [16]: stable in solutions"
0.0052,< 1,0.173 ± 0.031,0.266 ± 0.127,9 ± 1,–,–,–,–,–,–,–,–,–,CN1[C@@H](C(=O)NC23CCC(C(N)=O)(CC2)CC3)[C@H](c2cccc(Cl)c2F)[C@]2(C(=O)Nc3cc(Cl)ccc32)C12CCCCC2 [Cpd No. 9],–,–,–,–
0.131,30,–,–,–,–,–,–,–,–,–,–,–,–,CC1(O)CCC2(CC1)N[C@@H](C(=O)NC13CCC(C(=O)O)(CC1)CC3)[C@H](c1cccc(Cl)c1F)[C@]21C(=O)Nc2cc(Cl)ccc21 (some centres unmarked) [Cpd No. 5],–,–,–,–
0.0052,–,0.089 ± 0.033,0.137 ± 0.031,14 ± 2,> 60,> 60,> 60,> 60,74300 ± 5260,73600 ± 5020,3.33 ± 1.15,4.29 ± 0.371,high binding affinity,O=C(NC12CCC(C(=O)O)(CC1)CC2)[C@@H]1NC2(CCCCC2)[C@@]2(C(=O)Nc3cc(Cl)ccc32)[C@H]1c1cccc(Cl)c1F [Cpd No. 2],0.677 ± 0.252,only modest anti-tumor activity,potent cell growth inhibition activity,"IC50 [3, 19]: 0.089 ± 0.033 µM; IC50 [4, 21]: 0.137 ± 0.031 µM; IC50 [5, 23]: 14 ± 2 µM; IC50 [6]: 26.7 ± 5.1 µM; IC50 [17]: 0.062 ± 0.026 µM; IC50 [7]: 0.036 ± 0.019 µM; IC50 [8]: 12.3 ± 2.5 µM; Cmax [15]: 8230 ± 278 ng/mL"
–,–,–,–,–,–,–,–,–,–,–,–,–,high binding affinity,"O=C(O)c1ccc(NC(=O)[C@@H]2NC3(CCCCC3)[C@@]3(C(=O)Nc4cc(Cl)ccc43)[C@H]2c2cccc(Cl)c2F)cc1 [AA-MI-061, reference compound]",–,–,potent cell growth inhibition,"tumor regression ([10]; 100 mg/kg, once, daily dosing, SCID mice bearing SJSA-1 xenografts (FIG. 2A)): 90%"
0.0079,–,0.373,–,–,–,–,–,–,–,–,–,–,–,CS(=O)(=O)NC(=O)C12CCC(NC(=O)[C@@H]3NC4(CCCCC4)[C@@]4(C(=O)Nc5cc(Cl)ccc54)[C@H]3c3cccc(Cl)c3F)(CC1)CC2 [Cpd No. 4],–,–,–,–
0.0054,–,0.48,3.7,12.6,–,–,–,–,–,–,–,–,high binding affinity,O=C(NC12CC(C(=O)O)(C1)C2)[C@@H]1NC2(CCCCC2)[C@@]2(C(=O)Nc3cc(Cl)ccc32)[C@H]1c1cccc(Cl)c1F [Cpd No. 1],–,–,reduced potency,–
0.0088,< 1,0.165,–,–,–,–,–,–,–,–,–,–,–,O=C(NC12CCC(C(=O)O)(CC1)CC2)[C@@H]1NC2(CCC(F)(F)CC2)[C@@]2(C(=O)Nc3cc(Cl)ccc32)[C@H]1c1cccc(Cl)c1F [Cpd No. 3],–,–,–,–

Structure (SMILES),IC50 [1] [µM],Ki [2] [nM],"IC50 [3, 18] [µM]","IC50 [4, 20] [µM]","IC50 [5, 22] [µM]",half-life [11] [min],half-life [12] [min],half-life [13] [min],half-life [14] [min],AUC(0-inf) [15] [ng·h/mL],AUC(0-t) [15] [ng·h/mL],Tmax [15] [h],half-life [15] [h],binding affinity to MDM2 (in words) [2],IC50 [9] [µM],anti-tumor activity in mice bearing SJSA-1 xenograft tumors (in words) [10],cell growth inhibition in SJSA-1 cells (in words) [3],further results
CN1[C@@H](C(=O)NC23CCC(C(=O)O)(CC2)CC3)[C@H](c2cccc(Cl)c2F)[C@]2(C(=O)Nc3cc(Cl)ccc32)C12CCCCC2 [Cpd No. 7],–,–,–,–,–,> 60,> 60,> 60,> 60,35400 ± 15500,35200 ± 15200,4,3.89 ± 1.02,high binding affinity,0.713 ± 0.165,complete and persistent tumor regression,–,stability in solutions (in words) [16]: stable in solutions
